Laboratory results reported in US20020061514A1, “Assay for identifying modulators of chondrogenesis” (priority 2000, published 2002).

What was measured:
Type in all cases: cell-based, mouse
[1] = test system: pGL3(4X48) Sox9 responsive reporter gene; test: pGL3(4X48) luciferase reporter gene activity in transiently transfected primary limb mesenchymal cultures; conditions: for normalized RLU (pGL3(4X48) reporter gene activity): RLU values normalized to control reporter activity
Text: (§1) To increase reporter gene sensitivity, the Sox9 responsive reporter gene from 4X48-p89 luciferase (14) was subcloned into pGL3-basic (Promega). A fragment containing the reiterated (4 X 48) Sox9 binding sequence upstream of the mouse col II minimal promoter (−89 to +13) was liberated from 4X48-p89 plasmid by digestion with Bam HI and Hind III. This fragment was subcloned into the Bgl II and […] sites of pGL3-basic (Promega) to generate pGL3(4X48). To generate an EGFP-based col II reporter, the luciferase gene within pGL3(4X48) was replaced with EGFP-N1 (Clontech). For expression of genes in primary cultures a modified version of pSG5 (Stratagene), pSG5HS, was used which contains two additional restriction endonuclease sites, Hind III and Spe I. The myogenin promoter-luciferase construct was made by subcloning a 1.14 kB fragment of the myogenin promoter (containing the region from pGZ1092) from plasmid pGBB into pGL3-basic. The cardiac actin promoter-luciferase vector was generated by subcloning a fragment of the cardiac actin promoter from −440 to +6 into pGL3-basic.
(§2) Limb mesenchymal cells were harvested from embryonic age 11.25-11.75 mouse embryos as previously described (19). To establish proximal or distal cultures the proximal half of each limb bud was separated from the distal half, and each pool of limb fragments was processed separately. The cells were resuspended at a density of 1.5−2×10^7 cells/ml. For transfection purposes, cells were mixed with a DNA/FuGene6 mixture in a 2:1 ratio. FuGene6-DNA mixtures were prepared according to the manufacturer's instructions (Roche Biomolecular). Briefly, 1 μg of reporter, 1 μg of expression vector and 0.05 μg of pRLSV40 (Promega) were mixed for a total of ˜2 μg DNA in 100 μl of media and FuGene6. Fifty microlitres of the DNA mixture was transferred into a sterile 1.5 ml eppendorf tube, followed by 100 μl of cells. Cells were gently triturated and 10 μl was used to seed a single well of a 24-well culture dish. After 1.5 hrs in a humidified CO2 incubator, 1 ml of media containing compounds of interest was added to each well and was subsequently replaced 24 hrs following transfection.
Analysis of reporter gene activity using the Dual Luciferase Assay System was done following the manufacturer's instructions (Promega). Briefly, ˜48 hrs post-transfection, cells were washed once with PBS and lysed in 100 μl of Passive Lysis Buffer for 20 min. Firefly and renilla luciferase activities were determined using 40 μl of lysate in a 96-well plate reading luminometer (Molecular Devices).

limb mesenchymal cells = test: Alcian blue staining of cartilage nodules in primary limb mesenchymal cultures; conditions: 10 ng/ml, 2 and 4 days, vs untreated cultures
Procedure: as §2

[2] = test system: pGL3-4X48-EGFP reporter (Sox9 activity); test: pGL3(4X48)-EGFP reporter in primary limb mesenchymal cultures; conditions: 10 ng/ml, 64 hours post-transfection, vs untreated control cultures
Text: as §1
Limb mesenchymal cells were harvested from embryonic age 11.25-11.75 mouse embryos as previously described (19). To establish proximal or distal cultures the proximal half of each limb bud was separated from the distal half, and each pool of limb fragments was processed separately. […]

## BMP-4: bone morphogenetic protein added to cultures at 10 ng/ml
[1]; protein added at 10 ng/ml
  normalized RLU (pGL3(4X48) reporter gene activity): 4.2
[1]; treatment of reporter gene-transfected cells, 10 ng/ml (FIG. 3H)
  increase in reporter gene activity: ~4.5 fold
Limb mesenchymal cells
  cartilage nodule number (alcian blue): dramatic increase in nodule number
[2]
  number of EGFP-expressing (fluorescing) cells: enhanced

## Wnt3a
[1]; co-transfected expression construct
  normalized RLU (pGL3(4X48) reporter gene activity): 0.5

B1: Noggin: BMP pathway protein added at 100 ng/ml (protein, UniProt Q13253 28-232, looked up)
Noggin: QHYLHIRPAPSDNLPLVDLIEHPDPIFDPKEKDLNETLLRSLLGGHYDPGFMATSPPEDRPGGGGGAAGGAEDLAELDQLLRQRPSGAMPSEIKGLEFSEGLAQGKKQRLSKKLRRKLQMWLWSQTFCPVLYAWNDLGSRFWPRYVKVGSCFSKRSCSVPEGMVCKPSKSVHLTVLRWRCQRRGGQRCGWIPIQYPIISECKCSC
[1]; protein added at 100 ng/ml
  normalized RLU (pGL3(4X48) reporter gene activity): 0.3
